Assay results published in patent publication US20250170130A1, “MODULATORS OF MYC FAMILY PROTO-ONCOGENE PROTEIN” (Nalo Therapeutics, priority 2022, published 2025).
Read-outs that look alike come from different tables or passages of the source.

Key:
[1] = target: T1, MycN (Homo sapiens, UniProt P04198); assay: Degradation of MycN protein in SK-N-BE(2) cells, JESS/Western blot of lysates; type: cell-based; conditions: SKNBE2, 24 h; for Dmax at 3 µM: read-out: % Degradation of MycN (SKNBE2) 24 h, 3 μM; for Dmax at 6 µM: read-out: % Degradation of MycN (SKNBE2) 24 h, 6 μM; for Dmax at 0.5 µM: read-out: % Degradation of MycN (SKNBE2) 24 h, 0.5 μM; for Dmax at 1 µM: read-out: % Degradation of MycN (SKNBE2) 24 h, 1 μM
T1 construct: endogenous in cells; host or cells: SK-N-BE(2)
T1 sequence (P04198 1-464): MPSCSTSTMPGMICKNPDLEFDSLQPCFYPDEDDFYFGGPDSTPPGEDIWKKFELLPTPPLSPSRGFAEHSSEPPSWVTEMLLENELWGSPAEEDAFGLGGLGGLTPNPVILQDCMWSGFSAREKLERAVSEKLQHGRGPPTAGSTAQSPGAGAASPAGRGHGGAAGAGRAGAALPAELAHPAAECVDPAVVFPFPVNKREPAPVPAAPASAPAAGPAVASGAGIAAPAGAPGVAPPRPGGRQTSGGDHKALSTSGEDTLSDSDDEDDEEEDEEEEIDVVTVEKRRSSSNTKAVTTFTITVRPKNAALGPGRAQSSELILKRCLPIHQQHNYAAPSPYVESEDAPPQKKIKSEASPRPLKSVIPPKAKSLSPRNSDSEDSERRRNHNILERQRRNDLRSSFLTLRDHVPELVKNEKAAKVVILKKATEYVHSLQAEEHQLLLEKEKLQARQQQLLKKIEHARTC
Procedure: (§1) For L363 cells (suspension), 1E6 cells were plated into each well of a 6 well plate. For SK-N-BE(2) cells (adherent), 5E5 cells were plated into each well of a 6 well dish. Cells were cultured for 24 hrs then treated with exemplary compounds at 0.1, 0.5, 1.0, 3.0 and 6.0 mM final assay concentrations plus DMSO control. All compounds were diluted to 10 mM in DMSO. Cells were treated with the compound for 24 hrs, then for both cell types, media containing cells were removed from wells into a 15 ml centrifuge tube, and remaining adherent SK-N-BE(2) cells were also scraped from the wells into the appropriate tubes. Tubes were centrifuged, cells were washed with PBS then re-centrifuged to pellet cells. A RIPA buffer cocktail was added to the cells on ice for 5 mins. Cell lysates were clarified by centrifugation and stored at −80 degrees until required. BCA assay was performed on each lysate to determine the protein concentration.
(§2) Once an appropriate lysate concentration and antibody concentration was determined, samples were screened in the JESS technology (Protein Simple, San Jose, CA—https://www.proteinsimple.com/jess.html).
(§3) Target protein antibodies (n-myc and c-myc) were detected in the chemi-luminescence channel and loading controls (tubulin and GAPDH) were detected using a Near Infra Red (NIR) labeled secondary antibody.
For SK-N-EB2 adherent cells, 5E5 cells in 1.9 mls media were plated into 6 well dishes and incubated for 24 hrs. Exemplary compounds were added (100 ul, 1 in 20 dilution in media) to each well (final assay concentration 6, 3, 1 and […]) together with DMSO control wells and incubated for 24 hrs. Cells were scrapped off the plate, centrifuged, washed with PBS, centrifuged, then a RIPA buffer cocktail added to the cells (100 ul), centrifuged and stored at −80 for later analysis. For L363 suspension cells, 1E6 cells were plated into 24 well dishes (950 ul media) and incubated for 24 hrs. Exemplary compounds were added (50 ul, 1 in 20 dilution in media) to each well (final assay concentration 6, 3, 1 and […]) together with DMSO control wells and incubated for 24 hrs. Cells were aspirated into tubes, centrifuged, washed with PBS, centrifuged, then a RIPA buffer cocktail added to the cells (100 ul), centrifuged and stored at −80 for later analysis.
(§4) For Western blot, a BCA (total protein) assay was run on all samples, these were then run in batches of 5 compounds plus control (DMSO) on each Western blot run—n-myc and c-myc were run in separate experiments in the chemiluminescence channel. Both tubulin and GAPDH were run as loading controls in all lanes in the near infra red channel.

[2] = target: T2, MycC (Homo sapiens, UniProt P01106); assay: Degradation of MycC protein in L363 cells, JESS/Western blot of lysates; type: cell-based; conditions: L-363, 24 h; for Dmax at 0.5 µM: read-out: % Degradation of MycC (L-363) 24 h, 0.5 μM; for Dmax at 6 µM: read-out: % Degradation of MycC (L-363) 24 h, 6 μM; for Dmax at 3 µM: read-out: % Degradation of MycC (L-363) 24 h, 3 μM; for Dmax at 1 µM: read-out: % Degradation of MycC (L-363) 24 h, 1 μM
T2 construct: endogenous in cells; host or cells: L363
T2 sequence (P01106 whole entry): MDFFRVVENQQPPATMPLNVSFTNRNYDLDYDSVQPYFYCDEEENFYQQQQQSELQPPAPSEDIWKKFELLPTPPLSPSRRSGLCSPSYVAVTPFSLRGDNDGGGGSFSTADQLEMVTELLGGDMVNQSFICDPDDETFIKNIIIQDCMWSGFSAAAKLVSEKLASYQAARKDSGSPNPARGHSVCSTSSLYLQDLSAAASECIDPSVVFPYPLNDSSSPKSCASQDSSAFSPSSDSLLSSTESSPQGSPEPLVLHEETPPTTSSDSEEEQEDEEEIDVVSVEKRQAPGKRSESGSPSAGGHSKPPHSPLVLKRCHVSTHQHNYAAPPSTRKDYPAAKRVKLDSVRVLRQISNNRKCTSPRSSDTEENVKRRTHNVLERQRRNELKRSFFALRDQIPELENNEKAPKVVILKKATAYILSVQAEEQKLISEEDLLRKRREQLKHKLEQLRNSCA
Procedure: as §1, with “Cells were cultured for 24 hrs then treated with exemplary compounds at 0.1, 0.5, 1.0, 3.0 and 6.0 mM final assay concentrations plus DMSO control.” left out
as §2, §3
For SK-N-EB2 adherent cells, 5E5 cells in 1.9 mls media were plated into 6 well dishes and incubated for 24 hrs. […] Cells were scrapped off the plate, centrifuged, washed with PBS, centrifuged, then a RIPA buffer cocktail added to the cells (100 ul), centrifuged and stored at −80 for later analysis. For L363 suspension cells, 1E6 cells were plated into […] (950 ul media) and incubated for 24 hrs. […] Cells were aspirated into tubes, centrifuged, washed with PBS, centrifuged, then a RIPA buffer cocktail added to the cells (100 ul), centrifuged and stored at −80 for later analysis.
as §4

Structure (SMILES)	Dmax at 3 µM ([1]; SKNBE2 cells, 24 h, 3 μM) [%]	Dmax at 6 µM ([1]; SKNBE2 cells, 24 h, 6 μM) [%]	Dmax at 0.5 µM ([2]; L-363 cells, 24 h) [%]	Dmax at 0.5 µM ([1]; SKNBE2 cells, 24 h, 0.5 μM) [%]	Dmax at 1 µM ([1]; SKNBE2 cells, 24 h, 1 μM) [%]	Dmax at 6 µM ([2]; L-363 cells, 24 h, 6 μM) [%]	Dmax at 3 µM ([2]; L-363 cells, 24 h, 3 μM) [%]	Dmax at 1 µM ([2]; L-363 cells, 24 h, 1 μM) [%]	Dmax at 0.5 µM [1] [%]	Dmax at 1 µM [1] [%]	Dmax at 3 µM [1] [%]	Dmax at 6 µM [1] [%]	Dmax at 1 µM [2] [%]	Dmax at 3 µM [2] [%]	Dmax at 6 µM [2] [%]
CN[C@@H]1CCN(c2nccc(Nc3cc(C4CC4)[nH]n3)n2)C1 [Compound 19, N-(5-Cyclopropyl-1H-pyrazol-3-yl)-2-[(3R)-3-(methylamino)pyrrolidin-1-yl]pyrimidin-4-amine]	20 to 49	20 to 49	< 20	–	–	–	–	–	–	–	–	–	–	–	–
CN(C)CCCNc1nccc(Nc2cc(C3CC3)[nH]n2)n1 [Compound 20, N4-(5-Cyclopropyl-1H-pyrazol-3-yl)-N2-[3-(dimethylamino)propyl]pyrimidine-2,4-diamine]	20 to 49	50 to 79	–	< 20	< 20	< 20	–	–	–	–	–	–	–	–	–
CNC[C@@H]1CCN(c2nccc(Nc3cc(C4CC4)[nH]n3)n2)C1 [Compound 21, N-(5-Cyclopropyl-1H-pyrazol-3-yl)-2-[(3S)-3-(methylaminomethyl)pyrrolidin-1-yl]pyrimidin-4-amine]	20 to 49	20 to 49	–	20 to 49	< 20	20 to 49	< 20	–	–	–	–	–	–	–	–
CN(C)CC12CC(C1)N(c1nccc(Nc3cc(C4CC4)[nH]n3)n1)C2 [Compound 22, N-(5-Cyclopropyl-1H-pyrazol-3-yl)-2-[4-[(dimethylamino)methyl]-2-azabicyclo[2.1.1]hexan-2-yl]pyrimidin-4-amine]	20 to 49	50 to 79	–	< 20	< 20	80 to 100	< 20	–	–	–	–	–	–	–	–
NC[C@H]1CCN(c2nccc(Nc3cc(C4CCCC4)[nH]n3)n2)C1 [Compound 23, 2-[(3R)-3-(aminomethyl)pyrrolidin-1-yl]-N-(5-cyclopentyl-1H-pyrazol-3-yl)pyrimidin-4-amine]	80 to 100	80 to 100	–	20 to 49	50 to 79	80 to 100	80 to 100	–	–	–	–	–	–	–	–
NC[C@@H]1CCCN(c2nccc(Nc3cc(C4CC4)[nH]n3)n2)C1 [Compound 24, 2-[(3S)-3-(aminomethyl)-1-piperidyl]-N-(5-cyclopropyl-1H-pyrazol-3-yl)pyrimidin-4-amine]	80 to 100	80 to 100	< 20	20 to 49	50 to 79	80 to 100	80 to 100	–	–	–	–	–	–	–	–
c1cc(Nc2cc(C3CC3)[nH]n2)nc(N2CC3(CCNC3)C2)n1 [Compound 25, N-(5-cyclopropyl-1H-pyrazol-3-yl)-2-(2,7-diazaspiro[3.4]octan-2-yl)pyrimidin-4-amine]	20 to 49	20 to 49	< 20	20 to 49	20 to 49	–	–	< 20	–	–	–	–	–	–	–
CN1CCC2(C1)CN(c1nccc(Nc3cc(C4CC4)[nH]n3)n1)C2 [Compound 26, N-(5-cyclopropyl-1H-pyrazol-3-yl)-2-(7-methyl-2,7-diazaspiro[3.4]octan-2-yl)pyrimidin-4-amine]	20 to 49	50 to 79	20 to 49	20 to 49	20 to 49	–	< 20	20 to 49	–	–	–	–	–	–	–
CN1CC(C2CCN(c3nccc(Nc4cc(C5CCCC5)[nH]n4)n3)C2)C1 (stereo not drawn) [Compound 27, N-(5-cyclopentyl-1H-pyrazol-3-yl)-2-[3-(1-methylazetidin-3-yl)pyrrolidin-1-yl]pyrimidin-4-amine]	50 to 79	80 to 100	< 20	20 to 49	20 to 49	20 to 49	< 20	20 to 49	–	–	–	–	–	–	–
c1cc(Nc2cc(C3CCCC3)[nH]n2)nc(N2CCC(C3CNC3)C2)n1 (stereo not drawn) [Compound 28, 2-[3-(azetidin-3-yl)pyrrolidin-1-yl]-N-(5-cyclopentyl-1H-pyrazol-3-yl)pyrimidin-4-amine]	80 to 100	80 to 100	< 20	–	80 to 100	50 to 79	–	< 20	–	–	–	–	–	–	–
NC[C@H]1CCCN(c2nccc(Nc3cc(C4CC4)[nH]n3)n2)C1 [Compound 29, 2-[(3R)-3-(Aminomethyl)-1-piperidyl]-N-(5-cyclopropyl-1H-pyrazol-3-yl)pyrimidin-4-amine]	80 to 100	80 to 100	20 to 49	80 to 100	80 to 100	80 to 100	80 to 100	50 to 79	–	–	–	–	–	–	–
NCC12CC(C1)N(c1nccc(Nc3cc(C4CC4)[nH]n3)n1)C2 [Compound 30, 2-[4-(aminomethyl)-2-azabicyclo[2.1.1]hexan-2-yl]-N-(5-cyclopropyl-1H-pyrazol-3-yl)pyrimidin-4-amine]	–	–	–	–	–	–	–	–	< 20	50 to 79	80 to 100	80 to 100	20 to 49	80 to 100	80 to 100
CNCC12CC(C1)N(c1nccc(Nc3cc(C4CCCC4)[nH]n3)n1)C2 [Compound 31, N-(5-cyclopentyl-1H-pyrazol-3-yl)-2-[4-(methylaminomethyl)-2-azabicyclo[2.1.1]hexan-2-yl]pyrimidin-4-amine]	80 to 100	80 to 100	–	80 to 100	80 to 100	80 to 100	80 to 100	–	–	–	–	–	–	–	–
